The experiment concerns deposited Aβ. The experiment is described as follows: Prior 4-month study of BACE inhibitor in feed in aged PDAPP mice. It is filed as in vivo.

SMILES strings stand for the structures.

With `C[C@@]1(c2cc(-c3cncnc3)c(F)cc2F)CCSC(N)=N1` [LY2811376], the “change in the deposited Aβ over the 4-month interval” value is “no change in the deposited Aβ”.

For the origin of these results see patent publication US11312763B2, “Anti-N3pGlu amyloid beta peptide antibodies and uses thereof” (Eli Lilly and Company, priority 2016, dated 2022).
